# Measured values published in publication PMC2254147, “Novel Triazine JPC-2067-B Inhibits Toxoplasma gondii In Vitro and In Vivo” (PLoS Neglected Tropical Diseases, 2008).
# “Also recorded” adds a separate entry of the source. Like-named read-outs stand apart in the source and are kept apart here.
# Tests used:
# [1] = target: PfDHFR (Plasmodium falciparum, UniProt Q8I1R6); experiment: Plate reader DHFR assay, recombinant P. falciparum DHFR; type: biochemical
# From the text: (§1) DHFR from T. gondii prepared as above was also directly compared to purified recombinant P. falciparum DHFR (pfDHFR) and purified recombinant human DHFR (hDHFR). The hDHFR was from pDFR plasmid. The enzyme was purified following ammonium sulfate precipitation, methotrexate:agarose affinity chromatography, and finally a Superdex 200 size exclusion column. The pfDHFR isolation methods were those reported previously,[44]. […] The same buffer as used in the other assays comparing T. gondii DHFR with DHFRs from rat liver P. carinii and M. avium intracellulare was used but the maximal activity, temperature, and length of observation were adjusted for assays on the specific plate reader. […] The reaction was setup at 23°C, the plate loaded, and the OD340 recorded at 20 second intervals for 10 minutes. The first 8 minutes were used to generate linear fit slopes in Excel. […] Results are expressed as the percent of control activity versus log concentration of inhibitor. Prism 5.0 was used to generate curves from 12 different concentrations of inhibitor using a non-linear fit method.
# [2] = test system: human foreskin fibroblasts (HFF); experiment: Toxicity for host cells, 3H thymidine incorporation by non-confluent HFF; type: cell-based; conditions: increasing concentrations, tested concomitantly with T. gondii
# [3] = target: T1, hDHFR (Homo sapiens, UniProt P00374); experiment: Plate reader DHFR assay, recombinant human DHFR; type: biochemical
# T1 construct: made in house
# T1 sequence (P00374 1-187): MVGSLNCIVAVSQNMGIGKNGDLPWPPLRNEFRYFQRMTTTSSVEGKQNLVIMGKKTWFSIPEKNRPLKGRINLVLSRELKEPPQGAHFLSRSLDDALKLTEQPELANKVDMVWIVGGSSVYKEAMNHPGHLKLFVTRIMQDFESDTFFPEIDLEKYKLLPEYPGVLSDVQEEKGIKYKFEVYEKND
# From the text: as §1
# [4] = target: T2, Rat liver DHFR (Rattus norvegicus, UniProt Q920D2); experiment: Spectrophotometric DHFR assay, rat liver DHFR; type: biochemical; conditions: 37°C; (95% confidence limits)
# T2 construct: Rat liver DHFR was prepared from livers of female Sprague-Dawley rats; from tissue; host or cells: liver of female Sprague-Dawley rats
# T2 sequence (Q920D2 1-187): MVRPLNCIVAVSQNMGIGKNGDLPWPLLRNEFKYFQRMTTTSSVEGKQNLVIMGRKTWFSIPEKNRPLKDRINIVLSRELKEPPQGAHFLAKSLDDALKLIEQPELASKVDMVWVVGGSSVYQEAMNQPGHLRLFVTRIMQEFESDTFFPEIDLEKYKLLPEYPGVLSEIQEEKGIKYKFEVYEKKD
# Method: Rat liver DHFR was prepared from livers of female Sprague-Dawley rats. The 100,000× g supernate was partially purified by ammonium sulfate precipitation; the 50–90% precipitate was re-dissolved and stored in liquid nitrogen.
# The spectrophotometric assay for DHFR was optimized for temperature and concentration of substrate and cofactor for each enzyme. […] The reaction was continuously recorded for 3 minutes. […] The low background activity in the absence of dihydrofolic acid was subtracted from all rates.
# (§2) DHFR was assayed with several concentrations of inhibitor to produce rates ranging from 1 to 90% of the uninhibited rate. At least three concentrations were required for calculation; most curves contained five concentrations.
# [5] = target: T3, Pc DHFR (Pneumocystis carinii, UniProt P16184); experiment: Spectrophotometric DHFR assay, Pneumocystis carinii DHFR; type: biochemical; conditions: 37°C; (95% confidence limits); read-out: Pc DHFR IC50
# T3 construct: made in house; host or cells: Escherichia coli
# T3 sequence (P16184 1-206): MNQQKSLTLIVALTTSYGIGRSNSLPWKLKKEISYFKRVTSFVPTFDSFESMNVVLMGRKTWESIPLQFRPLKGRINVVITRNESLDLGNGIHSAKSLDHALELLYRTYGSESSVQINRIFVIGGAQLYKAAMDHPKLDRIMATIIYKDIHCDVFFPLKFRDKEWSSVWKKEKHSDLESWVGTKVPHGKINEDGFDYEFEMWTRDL
# From the text: DHFR from Pneumocystis carinii was produced as the recombinant enzyme expressed in Escherichia coli. […] DHFR from T. gondii was isolated directly from RH strain T. gondii grown in culture on Chinese hamster ovary cells lacking DHFR (CHO/dhfr^-, American Type Culture Collection 3952 CL). Organisms were introduced into a confluent monolayer and harvested when the mammalian cells were lysed. The 100,000× g supernate was stored in liquid nitrogen.
# The spectrophotometric assay for DHFR was optimized for temperature and concentration of substrate and cofactor for each enzyme. The standard assay contained Na phosphate buffer pH 7.4 (40.7 mM), 2-mercaptoethanol (8.9 mM), NADPH (0.117 mM), dihydrofolic acid (0.09 mM), KCL (150 mM), and sufficient enzyme to produce a change in OD340 of 0.035/minute at 37°C. The reaction was continuously recorded for 3 minutes. […] The low background activity in the absence of dihydrofolic acid was subtracted from all rates.
# as §2
# [6] = test system: T. gondii; experiment: Cidal test: cultures kept 52 days after removing compound on the 4th day; type: cell-based, Toxoplasma gondii; conditions: exposed 4 days, compound removed, cultured 52 days
# From the text: In separate experiments, to determine whether JPC-2067-B would be cidal for T. gondii, cultures were maintained for 52 days after removing JPC-2067-B on the 4th day of culture.
# [7] = test system: tester strains TA97, TA98, TA100, TA102 and TA1535; experiment: Ames Test with and without microsomal activation
# Method: A 42-day toxicology study in CD-1 mice at doses up to 98 mg/kg evaluating well-being, weight gain, and histopathology was performed. […] 7.5 mg/kg was established as the NOAEL (No Observed Adverse Effect Level). JPC-2056 and JPC-2067 were assayed in the Ames Test with and without microsomal activation with tester strains TA97, TA98, TA100, TA102 and TA1535.
# PfDHFR, sequence (Q8I1R6 entry or part of it): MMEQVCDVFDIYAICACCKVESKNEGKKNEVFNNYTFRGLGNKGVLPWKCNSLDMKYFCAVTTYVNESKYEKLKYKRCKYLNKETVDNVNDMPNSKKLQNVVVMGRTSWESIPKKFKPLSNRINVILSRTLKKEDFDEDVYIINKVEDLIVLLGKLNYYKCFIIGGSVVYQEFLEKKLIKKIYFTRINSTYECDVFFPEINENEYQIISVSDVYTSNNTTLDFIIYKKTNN
compound,measurement,setting,value
"CC1(C)N=C(N)N=C(N)N1OCCCOc1ccc(OC(F)(F)F)cc1Cl [JPC-2067-B, 4,6-diamino-1,2-dihydro-2,2-dimethyl-1-(3′(2-chloro-, 4-trifluoromethoxyphenoxy)propyloxy)-1,3,5-triazine]",IC50,"[1]; recombinant, 23°C, (95% Confidence Intervals), read-out: PfDHFR IC50",3.88 nM
same,IC50,"[1]; text to Figure 5 and Table 2, read-out: IC50 for P. falciparum DHFR",3.9 nM
same,"Toxicity for host cells, uptake of tritiated thymidine by nonconfluent fibroblasts",[2],no toxic effect on host cells; also recorded: no toxicity
same,IC50,"[3]; recombinant, 23°C, (95% Confidence Intervals), read-out: hDHFR IC50",148 nM
same,IC50,"[3]; text to Figure 5 and Table 2, read-out: IC50 for human DHFR",150 nM
same,IC50,[4],22.2 nM
same,IC50,[5],3.93 nM
same,Plaques or growth of parasites after removal of compound (cidal effect),[6],No plaques or Toxoplasma were seen throughout 52 days of culture; also recorded: No plaques or growth of parasites were detected
same,"Ames Test, with and without microsomal activation",[7],No activity
same,Ames w/o Activation,[7],Not Active ^*
same,Ames with Activation,[7],Not Active ^*
